# Test system: rat local cerebral ischemic model
# Assay: Cerebroprotective effect in a rat cerebral ischemic model (middle cerebral artery occlusion)
# Type: in vivo
# Conditions: SD rats, 120 minutes occlusion; intravenous, immediately after reperfusion and after 2, 4 and 6 hours; measured two days after ischemia; p<0.05
# Protocol: The compound obtained in Example 1 as an FAAH inhibitory agent (hereinafter, referred to as Compound A) was administered intravenously to a rat local cerebral ischemic model, and the inhibitory effect of the compound on cerebral infarct volume was examined. For the cerebral ischemic model, 8 weeks-old male SD rats (CLEA Japan, Inc.) were used to generate a middle cerebral artery occlusion model (Kiyota, et al., Experimental Brain Research, 95, 388-396 (1993)). That is, under halothane anesthesia, a silicone-coated plug was inserted into the rat from the right common carotid artery to the origin of middle cerebral artery to induce occlusion for 120 minutes. Compound A of Example was intravenously administered immediately after reperfusion and after 2, 4 and 6 hours, respectively. Two days after the ischemia treatment, the rat brain was extracted, 2 mm-thick slices of anterior maxillary section were prepared therefrom, and the cerebral infarct volume was measured from their TTC-stained images by image analysis.
compound,measurement,value
O=C(Nc1noc2ccccc12)N1CCN(c2nc(-c3ccccc3)ns2)CC1 [Compound A],cerebral infarct volume compared with the solvent-administered group,significantly smaller
